Reference: patent publication US20050038058A1, “Novel compounds and methods for therapy” (Institute of Organic Chemistry and Biochemistry, priority 2001, published 2005)
In brackets after ≈: the same amount, converted by molar mass. Read-outs that look alike come from different tables or passages of the source.

Tests used:
Format in all cases: cell-based
HIV-2(ROD) = assay: HIV-2(ROD)-induced cytopathicity in MT-4 cell cultures
Text: (§1) Viruses. The origins of MSV, HIV type 1 (HIV-1) (strain IIIB and Ba-L), HIV-2 (strain ROD) and FIV (strain Petaluma) have been described previously (Balzarini et al., AIDS 5: 21-28, 1991; De Clercq et al., Proc. Soc. Exp. Biol. Med. 137:590-594, 1971; Egberink et al., Proc. Natl. Acad. Sci. 87:3087-3091, 1990; Hartmann et al., Antiviral Chem. Chemother. 5:13-19, 1994; Popovic et al., Science 224:497-500, 1984). HIV-1(IIIB) and HIV-2(ROD) stocks were obtained from supernatants of virus-infected MT-4 cell cultures. HIV-1BaL was expanded in human primary M/M, whose supernatants were collected, filtered and stored at −80° C. before use. Characteristics of viral stocks used for this study were 2.1×10^8 HIV-RNA genomes/ml (corresponding to 35 ng of p24 antigen) and 5,000 tissue culture infectious doses 50% per ml (TCID50/ml) as assessed by virus titration in other primary M/M cultures. The isolation and characterization of the clinical HIV-1 isolates L1S, L6S and L6S/PMEA has been reported (Thormar et al., Proc. Natl. Acad. Sci. USA 93:3283-3287, 1995; Van Laethem et al., AIDS 15:553-561, 2001). […] HIV-1/L6S/PMEA is the clinical isolate HIV-1/L6S that has been isolated after culturing the virus for 11 passages in the presence of increasing concentrations of PMEA (adefovir).
(§2) In vitro antiviral assays. The activity against HIV-1- and HIV-2-induced cytopathicity was examined in MT-4 cell cultures at day 5 post infection and based on the determination of cell viability by trypan blue dye staining or in CEM cell cultures at day 4 to 5 post infection and based on the microscopical examination of virus-induced giant cell formation. HIV-1 and HIV-2 were added at 100 CCID50 to the cell cultures.

HIV-1/L1S = settings: measured against the laboratory HIV-1/IIIB strain in CEM cell cultures
Text: as §1, §2

HIV-1/L6S/PMEA = settings: measured against the laboratory HIV-1/IIIB strain in CEM cell cultures
Text: as §1, §2

HIV-1/L6S = settings: measured against the laboratory HIV-1/IIIB strain in CEM cell cultures
Text: as §1, §2

HIV-1(Ba-L) = assay: HIV-1(BaL) p24 antigen production in human primary macrophages (M/M); settings: Table 2; for EC50: Human immunodeficiency virus 1, BAL, Primary macrophage
Text: Viruses. The origins of MSV, HIV type 1 (HIV-1) (strain IIIB and Ba-L), HIV-2 (strain ROD) and FIV (strain Petaluma) have been described previously (Balzarini et al., AIDS 5: 21-28, 1991; De Clercq et al., Proc. Soc. Exp. Biol. Med. 137:590-594, 1971; Egberink et al., Proc. Natl. Acad. Sci. 87:3087-3091, 1990; Hartmann et al., Antiviral Chem. Chemother. 5:13-19, 1994; Popovic et al., Science 224:497-500, 1984). HIV-1(IIIB) and HIV-2(ROD) stocks were obtained from supernatants of virus-infected MT-4 cell cultures. HIV-1BaL was expanded in human primary M/M, whose supernatants were collected, filtered and stored at −80° C. before use. Characteristics of viral stocks used for this study were 2.1×10^8 HIV-RNA genomes/ml (corresponding to 35 ng of p24 antigen) and 5,000 tissue culture infectious doses 50% per ml (TCID50/ml) as assessed by virus titration in other primary M/M cultures. The isolation and characterization of the clinical HIV-1 isolates L1S, L6S and L6S/PMEA has been reported (Thormar et al., Proc. Natl. Acad. Sci. USA 93:3283-3287, 1995; Van Laethem et al., AIDS 15:553-561, 2001). The HIV-1/L1S clinical isolate was derived from a patient not treated with NRTIs (nucleoside reverse transcriptase inhibitors) or ANPs and cultured without the selective pressure of any drugs. Therefore, it contained no obvious mutations that are characteristic for NRTI- or ANP-treated patients. HIV-1/L6S is a clinical isolate from a drug-treated individual cultured without the selective pressure of any drugs. As is characteristic for NRTI-treated patients, it contained S68G, K70T, V75I, F77L, F116Y and Q151M mutations in its RT. HIV-1/L6S/PMEA is the clinical isolate HIV-1/L6S that has been isolated after culturing the virus for 11 passages in the presence of increasing concentrations of PMEA (adefovir). It gained, in addition to the mutations mentioned for HIV-1/L6S, also the PMEA-characteristic K65R mutation in its reverse transcriptase (RT).
Human primary macrophages (M/M) were prepared and purified as follows. Peripheral blood mononuclear cells (PBMC), obtained from healthy HIV-1-negative donors were separated over a Ficoll gradient and seeded in 48-well plates at 1.8×10^6 cells/well in 1 ml of RPMI 1640 containing 20% heat-inactivated, endotoxin- and mycoplasma-free fetal bovine serum (Hyclone Laboratories, Inc., Logan, Utah), 4 mM L-glutamine (Life Technologies), 50 U/ml penicillin and 50 μg/ml streptomycin (Life Technologies) (hereinafter referred to as complete medium). Five days after plating and culturing the PBMC at 37° C. in a humidified atmosphere enriched with 5% CO2-adherent cells were carefully removed with repeated washings with warmed RPMI-1640, leaving a monolayer of adherent cells which were finally incubated in complete medium. […]

[1] = Inhibition of CEM cell growth (cytostatic activity); settings: human
Experimental: Cytostatic and antimetabolic effect of acyclic nucleoside phosphonates in vitro. The assays to examine the inhibition of CEM cell growth by the test compounds have been described previously (Balzarini et al., AIDS 5:21-28, 1991). The 50% cytostatic concentration (CC50) was defined as the concentration of compound that reduced the number of living cells by 50% . To measure MT-4 cell toxicity of the test compounds, 5×10^4 MT-4 cells were incubated in the wells of 96-well microplates in the presence or absence of different concentrations of the test compounds for 5 days at 37° C. The CC50 was then calculated from the number of living cells counted under a microscope by the trypan blue exclusion method.

[2] = Human immunodeficiency virus 2, MT4, read-out: EC50 HIV-2 (ROD) (MT-4)
[3] = CEM cells, 50% cytostatic concentration, CEM cell proliferation, Table 1, read-out: CC50 (CEM)
[4] = CEM cells, inhibition of cell proliferation, Table 2, read-out: CC50 CEM
[5] = CEM cells, read-out: CC50 for CEM cells

| SMILES | EC50 HIV-2 (ROD) (MT-4) (HIV-2(ROD); Table 2) | -Fold Resistance HIV-1/L1S (HIV-1/L1S) | -Fold Resistance HIV-1/L6S/PMEA (HIV-1/L6S/PMEA) | -Fold Resistance HIV-1/L6S (HIV-1/L6S) | EC50 HIV-1 (BaL) (M/M) (HIV-1(Ba-L)) | EC50 (HIV-2(ROD); [2]) | EC50 (HIV-1(Ba-L)) | CC50 [1, 3] | CC50 [1, 4] | CC50 [1, 5] | EC50 (HIV-2(ROD); Human immunodeficiency virus 2, MT4, Table 2, read-out: EC50 HIV-2 (ROD) (MT-4)) | CC50 ([1]; 50% cytostatic concentration, CEM cell proliferation, Table 1, read-out: CC50 (CEM)) |
| --- | --- | --- | --- | --- | --- | --- | --- | --- | --- | --- | --- | --- |
| C[C@H](Cn1cnc2c(N)ncnc21)OCP(=O)(O)O [(R)-PMPA, (R)-9-[(2-phosphonomethoxy)-propyl]adenine, reference compound] | 0.52 µg/mL (≈ 1.81 µM) | 2.3 fold | 54 fold | 11 fold | 3 ± 1 ng/mL (≈ 0.0104 µM) |  |  |  |  |  |  |  |
| Nc1cc(OCCOCP(=O)(O)O)nc(N)n1 [Compound 1, 2,4-diamino-6-[2-(phosphonomethoxy)ethoxy]pyrimidine] |  | 0.8 fold | 3.6 fold | 1.5 fold |  | 0.29 µg/mL (≈ 1.1 µM) | 2 ± 1 ng/mL (≈ 0.00757 µM) | 11 µg/mL (≈ 41.6 µM) | 11 ± 2 µg/mL (≈ 41.6 µM) | 11 µg/mL (≈ 41.6 µM) |  |  |
| Nc1cc(SCCOCP(=O)(O)O)nc(N)n1 [Compound 2, 2,4-diamino-6-{[2-(phosphonomethoxy)ethyl]-sulfanyl}pyrimidine] |  | 2.1 fold | 14 fold | 1.4 fold |  | 2.9 µg/mL (≈ 10.3 µM) |  | 64 µg/mL (≈ 228 µM) | 64 ± 9.8 µg/mL (≈ 228 µM) | ~60 µg/mL (≈ 214 µM) |  |  |
| C[C@H](COc1cc(N)nc(N)n1)OCP(=O)(O)O [Compound 11, 2,4-diamino-6-(R)-[2-(phosphonomethoxy)propoxy]pyrimidine] | 1.6 ± 0.6 µg/mL (≈ 5.75 µM) | 1.9 fold | 30 fold | 3.5 fold | 5 ± 0 ng/mL (≈ 0.018 µM) |  |  |  |  |  |  |  |
| Nc1ncnc2c1ncn2CCOCP(=O)(O)O [PMEA, 9-[(2-phosphono-methoxy)ethyl]adenine, reference compound] |  | 2.0 fold | 7.3 fold | 2.7 fold |  |  | 6 ng/mL (≈ 0.022 µM) |  |  |  | 1.9 µg/mL (≈ 6.95 µM) | 16 µg/mL (≈ 58.6 µM) |
